{
  "source": "patent US20110160280A1",
  "about": "“CANCER-RELATED GENES, CDCA5, EPHA7, STK31 AND WDHD1” (Oncotherapy Science, Inc., priority 2007, published 2011)",
  "key": {"[1]": {"tested_on": "A549 cells", "experiment": "RNA interference assay (oligo based): colony formation and MTT assays", "type": "cell-based, human"}, "[2]": {"tested_on": "LC319 cells", "experiment": "RNA interference assay (oligo based): colony formation and MTT assays", "type": "cell-based, human", "experimental": "(§1) Small interfering RNA (siRNA) duplexes (Dharmacon, Inc., Lafayette, Colo.) (600 pM) were transfected into lung-cancer cell lines LC319 and A549 for CDCA5; NCI-H520 and SBC-5 for EPHA7; LC319 for WDHD1, and esophageal cancer cell line TE9 for WDHD1 using 30 μl of Lipofectamine 2000 (Invitrogen, Carlsbad, Calif.) following the manufacturer's protocol. The transfected cells were cultured for 7 days, and the number of colonies was counted by Giemsa staining, and viability of cells was evaluated by 3-(4,5-dimethylthiazol-2-yl)-2,5-diphenyltetrazolium bromide (MTT) assay (cell counting kit-8 solution; Dojindo Laboratories, Kumanoto, Japan), at 7 days after transfection. To confirm suppression of gene expression, semiquantitative RT-PCR was carried out with synthesized primers described above."}, "[3]": {"tested_on": "TE9 cells", "experiment": "RNA interference assay (oligo based): colony formation and MTT assays", "type": "cell-based, human", "experimental": "as §1"}, "[4]": {"tested_on": "WDHD1", "experiment": "RNA interference assay: WDHD1 knockdown by RT-PCR", "type": "cell-based, human", "details": "A549, LC319 and TE9 cells", "experimental": "Total RNA was extracted from cultured cells using Trizol reagent (Life Technologies, Inc. Gaithersburg, Md.) according to the manufacturer's protocol. Extracted RNAs were treated with DNase I (Nippon Gene, Tokyo, Japan) and reversely-transcribed using oligo (dT) primer and SuperScript II. The primer sets for amplification were as follows:\nas §1"}, "[5]": {"tested_on": "A549 cells", "experiment": "Flow cytometry (cell cycle) after si-WDHD1", "type": "cell-based, human", "experimental": "Cells were collected in PBS, and fixed in 70% cold ethanol for 30 minutes. After treatment with 100 μg/mL RNase (Sigma/Aldrich, St. Louis, Mo.), the cells were stained with 50 μg/mL propidium iodide (Sigma/Aldrich, St.) in PBS. Flow cytometry was done on a Becton Dickinson FACScan and analyzed by ModFit software (Verity Software House, Inc., Topsham, Me.). The cells selected from at least 20,000 ungated cells were analyzed for DNA content."}, "[6]": {"tested_on": "A549 cells", "experiment": "Time-lapse imaging (live cell imaging) after siRNA for WDHD1", "type": "cell-based, human", "details": "control cells divided about every 10 hours", "experimental": "Cells were grown on a 35 mm glass-bottom dish in phenol red-free Dulbecco's modified Eagle's medium containing 10% fetal bovine serum (FBS). Cells were transfected with siRNA and subjected to time-lapse imaging using a computer-assisted fluorescence microscope (Olympus, LCV100) equipped with an objective lens (Olympus, UAPO 40×/340 N.A.=0.90), a halogen lamp, a red LED (620 nm), a CCD camera (Olympus, DP30), differential interference contrast (DIC) optical components, and interference filters. For DIC imaging, the red LED was used with a filter cube containing an analyzer. Image acquisition and analysis were performed by using MetaMorph 6.13 software (Universal Imaging, Media, Pa.)."}, "[7]": {"tested_on": "mitotic cells", "experiment": "Immunocytochemical analysis of mitotic cells after siRNA for WDHD1", "type": "cell-based", "details": "control si-LUC: normal metaphase figures", "experimental": "Cultured cells were washed twice with PBS(−), fixed in 4% formaldehyde solution for 30 min at room temperature and then rendered permeable with PBS(−) containing 0.1% Triton X-100 for 3 min at room temperature. Nonspecific binding was blocked by Casblock (ZYMED, San Francisco, Calif.) for 10 min at room temperature for CDCA5 and WDHD1, by Casblock (ZYMED, San Francisco, Calif.) for 7 min at room temperature for EPHA7, 3% bovine serum albumin in PBS(−) for 7 min at room temperature for STK31. Cells were then incubated for 60 min (for CDCA5, EPHA7 or STK31) or 10 min (for WDHD1) at room temperature with primary antibodies diluted in PBS containing 3% BSA. After being washed with PBS(−), the cells were stained by a donkey anti-rabbit secondary antibody conjugated to Alexa488 (Molecular Probes) (for CDCA5 and EPHA7) or FITC-conjugated secondary antibody (Santa Cruz Biotechnology, Santa Cruz, Calif.) (for STK31 and WDHD1) at 1:1,000 dilutions for 60 min at room temperature. After another wash with PBS(−), each specimen was mounted with Vectashield (Vector Laboratories, Inc., Burlingame, Calif.) containing 4′,6-diamidino-2-phenylindole and visualized with Spectral Confocal Scanning Systems (TSC SP2 AOBS; Leica Microsystems, Wetzlar, Germany)."}, "[8]": {"details": "synchronized A549 cells after cell cycle release"}},
  "data": [
    {"substance": "5′-GGUAAUACGUGGACUCCUA UU-3′ (GGUAAUACGUGGACUCCUAUU; listed as RNA, chemistry not given here) [si-WDHD1-#2]", "values": [
      {"measurement": "number of A549 cells (MTT and colony-formation assays), siRNA against WDHD1", "setting": "[1]", "result": "drastic reduction in the number of cells"},
      {"measurement": "number of LC319 cells (MTT and colony-formation assays), siRNA against WDHD1", "setting": "[2]", "result": "drastic reduction in the number of cells"},
      {"measurement": "number of TE9 cells (MTT and colony-formation assays), siRNA against WDHD1", "setting": "[3]", "result": "drastic reduction in the number of cells"},
      {"measurement": "WDHD1 knockdown effect (RT-PCR)", "setting": "[4]", "result": "knockdown effect was confirmed"},
      {"measurement": "number of cells in S phase", "setting": "[5]; A549 cells, 24˜72 hours after transfection", "result": "continuously decreased"},
      {"measurement": "proportion of cells in G0/G1 phase", "setting": "[5]; A549 cells, 48˜72 hours after transfection", "result": "increased"},
      {"measurement": "number of cells in G0/G1 phase", "setting": "[5]; [8]", "result": "increased"},
      {"measurement": "progression of S phase", "setting": "[5]; [8]", "result": "delayed"},
      {"measurement": "cell division and cell death (time-lapse microscopy)", "setting": "[6]", "result": "divided slowly and died shortly after cell division"},
      {"measurement": "chromosome congression in mitotic cells", "setting": "[7]", "result": "chromosomes failed to congress at the spindle midzone"}
    ]}
  ]
}
